Measurements from US8952024B2, “Herbicidal pyrimidone derivatives” (E I du Pont de Nemours and Company, priority 2009, dated 2015).

How the values were obtained:
Format in all cases: in vivo
corn (Zea mays) = test: Test A pre-/postemergence plant response; details: for Corn plant response rating: visual injury, 0 to 100 scale (0 no effect, 100 complete control), approx. ten days
Excerpt: (§1) Seeds of barnyardgrass (Echinochloa crus-galli), large crabgrass (Digitaria sanguinalis), giant foxtail (Setaria faberii), morningglory (Ipomoea spp.), pigweed (Amaranthus retroflexus), velvetleaf (Abutilon theophrasti), wheat (Triticum aestivum) and corn (Zea mays) were planted into a blend of loam soil and sand and treated preemergence with a directed soil spray using test chemicals formulated in a non-phytotoxic solvent mixture which included a surfactant. At the same time these species were also treated with postemergence applications of test compounds formulated in the same manner.
(§2) Plants ranged in height from two to ten cm and were in the one- to two-leaf stage for the postemergence treatment. Treated plants and untreated controls were maintained in a greenhouse for approximately ten days, after which time all treated plants were compared to untreated controls and visually evaluated for injury. Plant response ratings, summarized in Table A, are based on a 0 to 100 scale where 0 is no effect and 100 is complete control. A dash (-) response means no test result.

[1] = tested on: wheat (Triticum aestivum); test: Test A pre-/postemergence plant response
Excerpt: as §1, §2

[2] = tested on: large crabgrass (Digitaria sanguinalis); test: Test A pre-/postemergence plant response; details: for Crabgrass, Large plant response rating: visual injury, 0 to 100 scale (0 no effect, 100 complete control), approx. ten days
Excerpt: as §1, §2

[3] = tested on: giant foxtail (Setaria faberii); test: Test A pre-/postemergence plant response
Excerpt: as §1, §2

[4] = tested on: barnyardgrass (Echinochloa crus-galli); test: Test A pre-/postemergence plant response; details: for Barnyardgrass plant response rating: visual injury, 0 to 100 scale (0 no effect, 100 complete control), approx. ten days
Excerpt: as §1, §2

[5] = tested on: pigweed (Amaranthus retroflexus); test: Test A pre-/postemergence plant response
Excerpt: as §1, §2

[6] = tested on: morningglory (Ipomoea spp.); test: Test A pre-/postemergence plant response
Excerpt: as §1, §2

[7] = tested on: velvetleaf (Abutilon theophrasti); test: Test A pre-/postemergence plant response
Excerpt: as §1, §2

[8] = tested on: umbrella sedge (Cyperus difformis); test: Test B flooded paddy test; details: for Plant response rating, Flood, Sedge, Umbrella: 250 g ai/ha, flooded paddy test, visual rating on 0 to 100 scale (0 no effect, 100 complete control) after 13 to 15 days; for Plant response rating, Sedge, Umbrella: Flood (flooded paddy test), 13 to 15 days; for Sedge, Umbrella plant response rating: Flood, 31 g ai/ha, scale 0 to 100 (0 no effect, 100 complete control)
Outline: (§3)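 Rice, umbrella sedge, ducksalad and barnyardgrass were grown to the 2-leaf stage, flooded to 3 cm, and compound was applied directly to the paddy water, with that depth kept throughout. After 13 to 15 days in the greenhouse, plants were visually rated against controls on a 0 (no effect) to 100 (complete control) scale.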

rice (Oryza sativa) = test: Test B flooded paddy test; details: for Plant response rating, Flood, Rice: 250 g ai/ha, flooded paddy test, visual rating on 0 to 100 scale (0 no effect, 100 complete control) after 13 to 15 days; for Plant response rating, Rice: Flood (flooded paddy test), 13 to 15 days; for Rice plant response rating: Flood, 31 g ai/ha, scale 0 to 100 (0 no effect, 100 complete control)
Outline: as §3

[9] = tested on: ducksalad (Heteranthera limosa); test: Test B flooded paddy test; details: for Plant response rating, Flood, Ducksalad: 250 g ai/ha, flooded paddy test, visual rating on 0 to 100 scale (0 no effect, 100 complete control) after 13 to 15 days; for Plant response rating, Ducksalad: Flood (flooded paddy test), 13 to 15 days; for Ducksalad plant response rating: Flood, 31 g ai/ha, scale 0 to 100 (0 no effect, 100 complete control)
Outline: as §3

[10] = tested on: barnyardgrass (Echinochloa crus-galli); test: Test B flooded paddy test; details: for Plant response rating, Flood, Barnyardgrass: 250 g ai/ha, flooded paddy test, visual rating on 0 to 100 scale (0 no effect, 100 complete control) after 13 to 15 days; for Plant response rating, Barnyardgrass: Flood (flooded paddy test), 13 to 15 days; for Barnyardgrass plant response rating: Flood, 31 g ai/ha, scale 0 to 100 (0 no effect, 100 complete control)
Outline: as §3

[11] = Postemergence, 125 g ai/ha, 0 to 100 scale where 0 is no effect and 100 is complete control
[12] = Preemergence, 125 g ai/ha, 0 to 100 scale, 0 = no effect, 100 = complete control
[13] = Preemergence, 500 g ai/ha, 0 to 100 scale, 0 = no effect, 100 = complete control
[14] = Postemergence, 500 g ai/ha, visual injury, 0 to 100 scale (0 no effect, 100 complete control), approx. ten days
[15] = 62 g ai/ha, scale of 0 to 100 where 0 is no effect and 100 is complete control
[16] = 125 g ai/ha, scale 0 to 100, 0 is no effect, 100 is complete control
[17] = Preemergence, 125 g ai/ha, 0 to 100 scale where 0 is no effect and 100 is complete control, approximately ten days
[18] = Postemergence, 125 g ai/ha, visual injury, 0 to 100 scale (0 no effect, 100 complete control), approx. ten days

Cc1cccc(-c2ncc(C(=O)C3=C(O)CCCC3=O)c(=O)n2-c2ccc(F)cc2C)c1 [Compound 192]
40: Corn plant response rating (corn (Zea mays); Postemergence, 500 g ai/ha) | Plant response rating, Corn (corn (Zea mays); [12]) | Plant response rating, Corn (corn (Zea mays); [13]) | Plant response rating, Crabgrass, Large [2, 13] | Plant response rating, Foxtail, Giant [3, 13] | Plant response rating, Sedge, Umbrella [8, 15]
90: Barnyardgrass plant response rating ([4]; Postemergence, 500 g ai/ha)
70: Foxtail, Giant plant response rating [3, 14] | Morningglory plant response rating [6, 14] | Plant response rating, Velvetleaf [7, 11]
20: Plant response rating, Wheat [1, 13] | Plant response rating, Flood, Rice (rice (Oryza sativa))
10: Plant response rating, Crabgrass, Large [2, 12] | Plant response rating, Barnyardgrass [4, 12]
100: Velvetleaf plant response rating [7, 14]
60: Plant response rating, Barnyardgrass [4, 11] | Plant response rating, Pigweed [5, 11] | Plant response rating, Velvetleaf [7, 13] | Plant response rating, Flood, Sedge, Umbrella [8] | Plant response rating, Ducksalad [9, 15] | Ducksalad plant response rating [9]
80: Crabgrass, Large plant response rating ([2]; Postemergence, 500 g ai/ha) | Pigweed plant response rating [5, 14]
50: Plant response rating, Foxtail, Giant [3, 11] | Plant response rating, Pigweed [5, 13] | Plant response rating, Sedge, Umbrella [8, 16]
30: Plant response rating, Crabgrass, Large [2, 11] | Plant response rating, Barnyardgrass [4, 13]
0: Plant response rating, Corn (corn (Zea mays); [11]) | Plant response rating, Wheat [1, 11] | Wheat plant response rating [1, 14] | Plant response rating, Wheat [1, 12] | Plant response rating, Foxtail, Giant [3, 12] | Plant response rating, Pigweed [5, 12] | Plant response rating, Morningglory [6, 12] | Plant response rating, Morningglory [6, 13] | Plant response rating, Velvetleaf [7, 12] | Sedge, Umbrella plant response rating [8] | Plant response rating, Rice (rice (Oryza sativa); [15]) | Plant response rating, Rice (rice (Oryza sativa); [16]) | Rice plant response rating (rice (Oryza sativa)) | Plant response rating, Flood, Barnyardgrass [10] | Plant response rating, Barnyardgrass [10, 15] | Plant response rating, Barnyardgrass [10, 16] | Barnyardgrass plant response rating [10]
75: Plant response rating, Flood, Ducksalad [9] | Plant response rating, Ducksalad [9, 16]

Cc1cc(F)ccc1-n1c(-c2cccc(Cl)c2)ncc(C(=O)C2=C(O)CCCC2=O)c1=O [Compound 167]
0: Plant response rating, Corn (corn (Zea mays); [12]) | Plant response rating, Corn (corn (Zea mays); [13]) | Plant response rating, Wheat [1, 11] | Wheat plant response rating [1, 14] | Plant response rating, Wheat [1, 12] | Plant response rating, Wheat [1, 13] | Plant response rating, Barnyardgrass [4, 12] | Plant response rating, Morningglory [6, 12] | Plant response rating, Morningglory [6, 13] | Plant response rating, Rice (rice (Oryza sativa); [16]) | Rice plant response rating (rice (Oryza sativa)) | Ducksalad plant response rating [9] | Barnyardgrass plant response rating [10]
100: Barnyardgrass plant response rating ([4]; Postemergence, 500 g ai/ha) | Pigweed plant response rating [5, 14] | Morningglory plant response rating [6, 14] | Plant response rating, Velvetleaf [7, 11] | Velvetleaf plant response rating [7, 14] | Plant response rating, Velvetleaf [7, 13]
10: Plant response rating, Foxtail, Giant [3, 12] | Plant response rating, Pigweed [5, 12]
90: Crabgrass, Large plant response rating ([2]; Postemergence, 500 g ai/ha) | Plant response rating, Crabgrass, Large [2, 13] | Plant response rating, Foxtail, Giant [3, 11] | Foxtail, Giant plant response rating [3, 14] | Plant response rating, Pigweed [5, 11] | Plant response rating, Pigweed [5, 13]
30: Plant response rating, Corn (corn (Zea mays); [11]) | Corn plant response rating (corn (Zea mays); Postemergence, 500 g ai/ha) | Plant response rating, Barnyardgrass [4, 13]
60: Plant response rating, Crabgrass, Large [2, 11] | Plant response rating, Barnyardgrass [4, 11] | Plant response rating, Morningglory [6, 11] | Plant response rating, Sedge, Umbrella [8, 16]
20: Plant response rating, Crabgrass, Large [2, 12] | Sedge, Umbrella plant response rating [8] | Plant response rating, Barnyardgrass [10, 16]
50: Plant response rating, Foxtail, Giant [3, 13]
70: Plant response rating, Velvetleaf [7, 12] | Plant response rating, Ducksalad [9, 16]

O=C(C1=C(O)C2CCC(C2)C1=O)c1cnc(-c2ccccc2)n(CC2CCCO2)c1=O (stereo not drawn) [Compound 250]
20: Wheat plant response rating [1, 14]
60: Plant response rating, Crabgrass, Large [2, 11] | Plant response rating, Foxtail, Giant [3, 13] | Plant response rating, Pigweed [5, 17] | Plant response rating, Morningglory [6, 13]
50: Plant response rating, Barnyardgrass [4, 11] | Plant response rating, Velvetleaf [7, 17]
65: Plant response rating, Sedge, Umbrella [8, 15] | Plant response rating, Sedge, Umbrella [8, 16]
0: Plant response rating, Corn (corn (Zea mays); [11]) | Plant response rating, Corn (corn (Zea mays); [17]) | Plant response rating, Corn (corn (Zea mays); [13]) | Plant response rating, Wheat [1, 18] | Plant response rating, Wheat [1, 17] | Plant response rating, Barnyardgrass [4, 17] | Sedge, Umbrella plant response rating [8] | Plant response rating, Flood, Rice (rice (Oryza sativa)) | Plant response rating, Rice (rice (Oryza sativa); [15]) | Plant response rating, Rice (rice (Oryza sativa); [16]) | Rice plant response rating (rice (Oryza sativa)) | Plant response rating, Barnyardgrass [10, 15] | Barnyardgrass plant response rating [10]
30: Plant response rating, Crabgrass, Large [2, 17] | Plant response rating, Foxtail, Giant [3, 17] | Plant response rating, Ducksalad [9, 15] | Ducksalad plant response rating [9]
70: Corn plant response rating (corn (Zea mays); Postemergence, 500 g ai/ha) | Plant response rating, Flood, Sedge, Umbrella [8] | Plant response rating, Ducksalad [9, 16]
10: Plant response rating, Wheat [1, 13] | Plant response rating, Morningglory [6, 17] | Plant response rating, Flood, Barnyardgrass [10] | Plant response rating, Barnyardgrass [10, 16]
40: Plant response rating, Barnyardgrass [4, 13]
75: Plant response rating, Flood, Ducksalad [9]
100: Crabgrass, Large plant response rating ([2]; Postemergence, 500 g ai/ha) | Foxtail, Giant plant response rating [3, 14] | Barnyardgrass plant response rating ([4]; Postemergence, 500 g ai/ha) | Plant response rating, Pigweed [5, 18] | Pigweed plant response rating [5, 14] | Plant response rating, Pigweed [5, 13] | Plant response rating, Morningglory [6, 18] | Morningglory plant response rating [6, 14] | Plant response rating, Velvetleaf [7, 18] | Velvetleaf plant response rating [7, 14]
90: Plant response rating, Crabgrass, Large [2, 13] | Plant response rating, Foxtail, Giant [3, 18] | Plant response rating, Velvetleaf [7, 13]
